Measured values from patent publication US20240132431A1, “METHOD FOR ALKYLATING ACIDIC FUNCTIONAL GROUP” (Chugai Seiyaku Kabushiki Kaisha, priority 2021, published 2024).

Molecular target: T1, Bcl-2 protein (Recombinant Human Bcl-2 Protein) (Homo sapiens, UniProt P10415)
T1 construct: purchased Novus NBP2-34889
Experiment: Binding evaluation of mixture library compounds to Bcl-2 using AS-MS (affinity selection mass spectrometry)
Conditions: for ASMS ratio (%) n = 2 / ASMS ratio (%) n = 1: ASMS Ratio(%)=(A−C)/B×100; for ASMS ratio (%) n = 2: replicate n = 2; for ASMS ratio (%) n = 1: replicate n = 1
Summary of the method: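 Pooled library of ~1200 compounds ([…] each, final) incubated with recombinant human Bcl-2 (20 μM final) in Tris-HCl pH 7.4, NaCl, Tween-20, DTT buffer, dark, 23° C., 1 h. Bound fraction recovered by SEC spin column, organic extraction, reversed-phase LC/MS. ASMS Ratio (%) = (A−C)/B×100 versus protein-free standard and SEC blank.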

[1] = AS-MS, mixture of 1200 compounds, Bcl-2
[2] = AS-MS on the mixture of 1200 library compounds

T1 sequence (P10415 whole entry): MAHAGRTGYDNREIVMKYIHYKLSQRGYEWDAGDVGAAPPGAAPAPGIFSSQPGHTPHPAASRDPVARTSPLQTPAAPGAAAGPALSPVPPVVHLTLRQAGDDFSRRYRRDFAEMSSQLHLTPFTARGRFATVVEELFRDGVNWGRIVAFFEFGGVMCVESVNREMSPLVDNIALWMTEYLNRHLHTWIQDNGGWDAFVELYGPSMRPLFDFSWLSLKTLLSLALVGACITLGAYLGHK

CCOc1cncc(C#Cc2cncc(C(=O)N3CCN(c4ccc(C(=O)NCC56CC7CC(CC(C7)C5)C6)nn4)CC3)c2)c1 [B1A010-01, N-(1-Adamantylmethyl)-6-[4-[5-[2-(5-ethoxypyridin-3-yl)ethynyl]pyridine-3-carbonyl]piperazin-1-yl]pyridazine-3-carboxamide]
ASMS ratio (%) n = 2 [1]: 0.0%

CCOc1cccc(-c2cc(CN3CCN(c4ccc(C(=O)NS(=O)(=O)C(C)(C)C)nn4)CC3)cc(OC(C)C)c2)c1 [B2L083-01, N-tert-Butylsulfonyl-6-[4-[[3-(3-ethoxyphenyl)-5-propan-2-yloxyphenyl]methyl]piperazin-1-yl]pyridazine-3-carboxamide]
ASMS ratio (%) (n = 1): 0.0%
ASMS ratio (%) (n = 2): 0.0%

CCOc1cccc(C#Cc2cncc(C(=O)N3CCN(c4ccc(C(=O)Nc5ccc(OC)cc5)nn4)CC3)c2)c1 [B1O009-01, 6-[4-[5-[2-(3-Ethoxyphenyl)ethynyl]pyridine-3-carbonyl]piperazin-1-yl]-N-(4-methoxyphenyl)pyridazine-3-carboxamide]
ASMS ratio (%) n = 1 [2]: 1.1%
ASMS ratio (%) n = 2 [2]: 1.3%

CCOc1cccc(-c2cc(C(=O)N3CCN(c4ccc(C(=O)N(C)CC56CC7CC(CC(C7)C5)C6)nn4)CC3)cc(C(F)(F)F)c2)c1 [B3A017-01, N-(1-Adamantylmethyl)-6-[4-[3-(3-ethoxyphenyl)-5-(trifluoromethyl)benzoyl]piperazin-1-yl]-N-methylpyridazine-3-carboxamide]
ASMS ratio (%) n = 1 [2]: 6.9%
ASMS ratio (%) n = 2 [2]: −6.3%

CCOc1cccc(-c2cc(C(=O)N3CCN(c4ccc(C(=O)NCC(F)(F)F)cc4)CC3)cc(C(C)(C)C)c2)c1 [B1K037-01, 4-[4-[3-tert-Butyl-5-(3-ethoxyphenyl)benzoyl]piperazin-1-yl]-N-(2,2,2-trifluoroethyl)benzamide]
ASMS ratio (%) n = 1 [1]: 0.8%
ASMS ratio (%) n = 2 [1]: 1.9%

CCOc1cncc(C#Cc2cncc(C(=O)N3CCN(c4ccc(C(=O)NS(=O)(=O)C(C)(C)C)cc4)CC3)c2)c1 [B2L032-01, N-tert-Butylsulfonyl-4-[4-[5-[2-(5-ethoxypyridin-3-yl)ethynyl]pyridine-3-carbonyl]piperazin-1-yl]benzamide]
ASMS ratio (%) (n = 1): 0.0%
ASMS ratio (%) (n = 2): −1.0%

4-[4-[1-[4-(3-Ethoxyphenyl)-2-fluorophenyl]ethyl]piperazin-1-yl]-N-propylbenzamide [B1M005-01]
ASMS ratio (%) n = 1 [1]: 0.0%
ASMS ratio (%) n = 2 [1]: 1.4%

CCOc1cncc(C#Cc2ccccc2C(=O)N2CCN(c3ccc(C(=O)NCC45CC6CC(CC(C6)C4)C5)cc3)CC2)c1 [B1A030-01, N-(1-Adamantylmethyl)-4-[4-[2-[2-(5-ethoxypyridin-3-yl)ethynyl]benzoyl]piperazin-1-yl]benzamide]
ASMS ratio (%) n = 1 [1]: 6.9%
ASMS ratio (%) n = 2 [1]: −1.8%

CCOc1cncc(-c2cc(C(=O)N3CCN(c4ccc(C(=O)NS(=O)(=O)c5ccc(NCCSc6ccccc6)c(C(F)(F)F)c5)nn4)CC3)cc(C(C)(C)C)c2)c1 [B2R016-01, 6-[4-[3-tert-Butyl-5-(5-ethoxypyridin-3-yl)benzoyl]piperazin-1-yl]-N-[4-(2-phenylsulfanylethylamino)-3-(trifluoromethyl)phenyl]sulfonylpyridazine-3-carboxamide]
ASMS ratio (%) (n = 1): 9.1%
ASMS ratio (%) (n = 2): 2.7%

CCOc1cncc(-c2csc(CN3CCN(c4ccc(C(=O)NS(=O)(=O)C(C)(C)C)cc4)CC3)c2)c1 [B2L068-01, N-tert-Butylsulfonyl-4-[4-[[4-(5-ethoxypyridin-3-yl)thiophen-2-yl]methyl]piperazin-1-yl]benzamide]
ASMS ratio (%) (n = 1): 0.0%
ASMS ratio (%) (n = 2): 0.0%

CCOc1cncc(-c2cc(CN3CCN(c4ccc(C(=O)NS(=O)(=O)CCC(F)(F)F)cc4)CC3)cc(C(F)(F)F)c2)c1 [B2N062-01, 4-[4-[[3-(5-Ethoxypyridin-3-yl)-5-(trifluoromethyl)phenyl]methyl]piperazin-1-yl]-N-(3,3,3-trifluoropropylsulfonyl)benzamide]
ASMS ratio (%) (n = 1): 0.0%
ASMS ratio (%) (n = 2): 0.0%

CCOc1cccc(-c2cc(OC)c(CN3CCN(c4ccc(C(=O)Nc5ccc(OC)cc5)nn4)CC3)c(OC)c2)c1 [B1O085-01, 6-[4-[[4-(3-Ethoxyphenyl)-2,6-dimethoxyphenyl]methyl]piperazin-1-yl]-N-(4-methoxyphenyl)pyridazine-3-carboxamide]
ASMS ratio (%) n = 1 [2]: −1.1%
ASMS ratio (%) n = 2 [2]: −3.1%

CCOc1cccc(-c2cc(CN3CCN(c4ccc(C(=O)NS(=O)(=O)CCC(F)(F)F)cc4)CC3)cc(C(F)(F)F)c2)c1 [B2N061-01]
ASMS ratio (%) (n = 1): 0.0%
ASMS ratio (%) (n = 2): 0.0%

CCOc1cncc(-c2ccc(CN3CCN(c4ccc(C(=O)NCC(F)(F)F)cc4)CC3)cc2C)c1 [B1K048-01, 4-[4-[[4-(5-Ethoxypyridin-3-yl)-3-methylphenyl]methyl]piperazin-1-yl]-N-(2,2,2-trifluoroethyl)benzamide]
ASMS ratio (%) n = 1 [1]: 0.1%
ASMS ratio (%) n = 2 [1]: 1.2%

CCOc1cncc(-c2ccc(CN3CCN(c4ccc(C(=O)N(CC)CC)nn4)CC3)c(CC)c2)c1 [B4J076-01, 6-[4-[[4-(5-Ethoxypyridin-3-yl)-2-ethylphenyl]methyl]piperazin-1-yl]-N,N-diethylpyridazine-3-carboxamide]
ASMS ratio (%) n = 1 (AS-MS, mixture library, Bcl-2): 0.0%
ASMS ratio (%) n = 2 (AS-MS, mixture library, Bcl-2): 0.0%

CCOc1cccc(-c2cc(C(=O)N3CCN(c4ccc(C(=O)Nc5ccc(OC)cc5)cc4)CC3)cc(C(F)(F)F)c2)c1 [B1O039-01, 4-[4-[3-(3-Ethoxyphenyl)-5-(trifluoromethyl)benzoyl]piperazin-1-yl]-N-(4-methoxyphenyl)benzamide]
ASMS ratio (%) n = 1 [2]: 5.1%
ASMS ratio (%) n = 2 [2]: 0.2%

CCOc1cccc(-c2ccc(CN3CCN(c4ccc(C(=O)NS(=O)(=O)c5ccc(NCCSc6ccccc6)c(C(F)(F)F)c5)cc4)CC3)c(CC)c2)c1 [B2R049-01, 4-[4-[[4-(3-Ethoxyphenyl)-2-ethylphenyl]methyl]piperazin-1-yl]-N-[4-(2-phenylsulfanylethylamino)-3-(trifluoromethyl)phenyl]sulfonylbenzamide]
ASMS ratio (%) (n = 1): 7.5%
ASMS ratio (%) (n = 2): −5.5%

CCOc1cncc(C#Cc2cncc(C(=O)N3CCN(c4ccc(C(=O)N(CC)CC)nn4)CC3)c2)c1 [B4J010-01, 6-[4-[5-[2-(5-Ethoxypyridin-3-yl)ethynyl]pyridine-3-carbonyl]piperazin-1-yl]-N,N-diethylpyridazine-3-carboxamide]
ASMS ratio (%) n = 1 [2]: 0.0%
ASMS ratio (%) n = 2 [2]: 2.3%

CCOc1cccc(-c2ccc(C(C)N3CCN(c4ccc(C(=O)NS(C)(=O)=O)cc4)CC3)cc2)c1 (stereo not shown) [B2I097-01, 4-[4-[1-[4-(3-Ethoxyphenyl)phenyl]ethyl]piperazin-1-yl]-N-methylsulfonylbenzamide]
ASMS ratio (%) (n = 1): 0.8%
ASMS ratio (%) (n = 2): 1.4%

CCOc1cccc(-c2csc(CN3CCN(c4ccc(C(=O)N(CC)CC)cc4)CC3)c2)c1 [B4J067-01, 4-[4-[[4-(3-Ethoxyphenyl)thiophen-2-yl]methyl]piperazin-1-yl]-N,N-diethylbenzamide]
ASMS ratio (%) n = 1 (AS-MS, mixture library, Bcl-2): −11.0%
ASMS ratio (%) n = 2 (AS-MS, mixture library, Bcl-2): −5.5%

CCOc1cccc(C#Cc2cncc(C(=O)N3CCN(c4ccc(C(=O)N(CC)CC)cc4)CC3)c2)c1 [B4J031-01, 4-[4-[5-[2-(3-Ethoxyphenyl)ethynyl]pyridine-3-carbonyl]piperazin-1-yl]-N,N-diethylbenzamide]
ASMS ratio (%) n = 1 [2]: 0.1%
ASMS ratio (%) n = 2 [2]: 0.8%

CCOc1cncc(-c2ccc(CN3CCN(c4ccc(C(=O)N(CC)CC)nn4)CC3)cc2C)c1 [B4J074-01, 6-[4-[[4-(5-Ethoxypyridin-3-yl)-3-methylphenyl]methyl]piperazin-1-yl]-N,N-diethylpyridazine-3-carboxamide]
ASMS ratio (%) n = 1 (AS-MS, mixture library, Bcl-2): 0.0%
ASMS ratio (%) n = 2 (AS-MS, mixture library, Bcl-2): 0.0%

CCOc1cncc(-c2ccc(C(=O)N3CCN(c4ccc(C(=O)N(C)CC56CC7CC(CC(C7)C5)C6)cc4)CC3)cc2F)c1 [B3A028-01, N-(1-Adamantylmethyl)-4-[4-[4-(5-ethoxypyridin-3-yl)-3-fluorobenzoyl]piperazin-1-yl]-N-methylbenzamide]
ASMS ratio (%) n = 1 [2]: 9.8%
ASMS ratio (%) n = 2 [2]: 1.6%

CCOc1cccc(-c2ccc(CN3CCN(c4ccc(C(=O)NS(=O)(=O)CC56CC7CC(CC(C7)C5)C6)cc4)CC3)c(CC)c2)c1 [B2A049-01, N-(1-Adamantylmethylsulfonyl)-4-[4-[[4-(3-ethoxyphenyl)-2-ethylphenyl]methyl]piperazin-1-yl]benzamide]
ASMS ratio (%) n = 1 (AS-MS, mixture library, Bcl-2): −3.0%
ASMS ratio (%) n = 2 (AS-MS, mixture library, Bcl-2): 6.2%

CCOc1cncc(C#Cc2ccccc2C(=O)N2CCN(c3ccc(C(=O)N(C)CC45CC6CC(CC(C6)C4)C5)nn3)CC2)c1 [B3A008-01, N-(1-Adamantylmethyl)-6-[4-[2-[2-(5-ethoxypyridin-3-yl)ethynyl]benzoyl]piperazin-1-yl]-N-methylpyridazine-3-carboxamide]
ASMS ratio (%) n = 1 [2]: 0.6%
ASMS ratio (%) n = 2 [2]: −0.3%
